The values that follow come from PubChem BioAssay (NCI).

Structures are written as SMILES.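 Tested at 5 concentrations; 48 h exposure; 96-well plates; endpoints linearly interpolated, else capped at highest concentration. GI50 is the concentration that inhibits growth by half. Definition used: TGI = concentration required for complete inhibition of growth.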

What all share (experiment): NCI tumour cell line growth inhibition, 48 h
Test [1] concerns A498 renal.
The test system of test [2] is A549 NSCLC.
Test [3] deals with KM12 colon.
Test [4] deals with M14 melanoma.
In test [5] the test system is MALME-3M melanoma.
In test [6] the test system is MOLT-4 leukemia.
The test system of test [7] is SF-295 CNS.
In test [8] the test system is SW-620 colon.
The subject of test [9] is T-47D breast.
Test [10] deals with PC-3 prostate.

As to `CC1=C(C(=O)Nc2ccc(C)cc2)C(c2cccc([N+](=O)[O-])c2)C(C(=O)Nc2ccc(C)cc2)=C(C)N1`, the TGI was 55.3 µM in [1]; greater than 100 µM in test [2]; 40.2 µM in test [3]; 49.2 µM in [4]; 77.2 µM in test [5]; 38.5 µM in [6]. Further, the TGI in test [7] was 82.3 µM; in test [8], greater than 100 µM.
Consider `Cc1ccccc1-n1c(CCl)nc2ccc(Br)cc2c1=O`, for which the TGI in test [1] stood at 60.8 µM; in [2] it was 44.9 µM; in [3], 26.9 µM; in [4], 22.8 µM; in test [5], 32.9 µM; in test [6], 73.5 µM. For the same compound, the TGI in test [7] stood at 58.4 µM; in test [8], 8.95 µM.
For `CCCCCCCCCCCCCCCCCC[S+](C)CC` (stereo not drawn), the GI50 in test [1] was 1.71 µM; in [3] it was 1.14 µM; in [4], 1.33 µM; in [5] it was 1.38 µM; in [7], 1.2 µM; in [8], 1.46 µM. In test [9], the GI50 is 2.36 µM. The TGI in [1] was determined as 4.36 µM; in [3], 2.45 µM; in test [4], 2.75 µM; in [5] it was 3.45 µM; in [7], 2.59 µM; in test [8] it was 2.89 µM. Also, in test [9], the TGI is 18.8 µM.
Consider `CC(=O)Nc1ccc(C2=N/C(=C\c3ccc(Cl)cc3)C(=O)O2)cc1`, for which the TGI in test [1] is greater than 100 µM; in test [2], greater than 100 µM; in test [3], greater than 100 µM; in test [4], 56.2 µM; in [5], greater than 100 µM; in [6] it was 64.1 µM. The TGI was greater than 100 µM in test [7] and 22.8 µM in test [8].
For the compound `COC(=O)C1=CC(=O)[C@@H]2CCCC[C@H]12`, the TGI in test [2], in [3], in test [4], in test [5], in [6] and in test [8] was greater than 100 µM throughout.
As for `O=C(CC1(O)C(=O)Nc2ccccc21)c1ccccc1O` (stereo not drawn), the TGI in [1], in [2], in [4], in test [5], in test [6] and in test [7] was greater than 100 µM throughout. In test [8], this compound displayed a TGI greater than 100 µM.
Take `Clc1ccccc1C1SCc2nc3ccccc3n21` (stereo not drawn): the TGI in test [2] was greater than 100 µM; in [3], greater than 100 µM; in [4], 59.9 µM; in [5], 53.4 µM; in [6] it was greater than 100 µM; in test [7], greater than 100 µM. In [8], this compound came in with a TGI greater than 100 µM.
`CCc1ccccc1NC(=O)C(=O)C1C(=O)N(c2ccccc2)N=C1N` (stereo not drawn): the TGI in test [1], in [2], in [3], in [4], in test [5] and in [6] was greater than 100 µM in each case. In addition, the TGI in test [7] and in [8] was greater than 100 µM throughout.
Take `N#CCCN(c1ccc(C=O)cc1)S(=O)(=O)c1ccccc1`: the TGI in test [1], in test [2], in test [3], in test [4], in test [5] and in [6] was greater than 100 µM each time. The TGI in test [7] and in [8] was greater than 100 µM each time.
Regarding `N#Cc1cccc(C2C(=O)c3ccc(C(=O)c4ccc5c(c4)C(=O)N(c4ccc(Oc6ccc(N7C(=O)c8ccc(C(=O)c9ccc%10c(c9)C(=O)N(c9cccc(C#N)c9)C%10=O)cc8C7=O)cc6)cc4)C5=O)cc3C2=O)c1` (stereo not drawn), the TGI in test [2], in test [3], in test [4], in test [5], in [6] and in test [7] was greater than 100 µM in each case. In [8], this compound yielded a TGI greater than 100 µM.
Turning to `COc1cc(CC(=O)O)c([N+](=O)[O-])cc1OC`, the TGI in test [1], in test [2], in test [3], in test [4], in test [5] and in [6] was greater than 100 µM throughout. Besides, the TGI in [7] and in test [8] was greater than 100 µM in each case.
`Cc1ccc(NC(=O)CC2SC(=Nc3ccc(Cl)cc3)NC2=O)cc1C` (stereo not drawn): the TGI in [1] was determined as 43.2 µM; in test [2], 34.3 µM; in [3] it was 40.3 µM; in [4], 31.2 µM; in test [5], 33.2 µM; in test [6] it was 5.28 µM. Also, the TGI in test [7] is greater than 73.3 µM; in [8], 18.5 µM.
Regarding `CC[As](CC)SCC1OC(OC(C)=O)C(OC(C)=O)C(OC(C)=O)C1OC(C)=O` (stereo not drawn), the TGI in [1] turned out to be 38.9 µM; in test [2], 39.6 µM; in test [3], 34.7 µM; in test [4], 24.7 µM; in [5], 10.3 µM; in [6] it was 48.2 µM. Besides, the values for the TGI in test [7] and in [8] were 35.7 µM and 16.3 µM, respectively.
`O=C1c2ccc3c4c(ccc(c24)C(=O)N1CCNCc1ccccc1)C(=O)N(CCNCc1ccccc1)C3=O`: the GI50 in test [1] is 15.6 µM; in test [2], 1.87 µM; in [3], 1.69 µM; in test [4], 1.85 µM; in test [6], 3.96 µM; in test [7], 1.78 µM. For the same compound, the values for the GI50 in test [8] and in [9] were 0.306 µM and 1.64 µM, respectively. For the same compound, the TGI is 37.8 µM in [1]; 8.77 µM in test [2]; 3.31 µM in [3]; 3.27 µM in [4]; greater than 100 µM in test [6]; 5.2 µM in [7]. Besides, the TGI amounted to 1.37 µM in test [8] and 3.57 µM in test [9].
In the case of `CCn1ncc(N=O)c1N`, the TGI in test [2], in test [3], in [4], in test [6], in test [10] and in test [7] was greater than 100 µM each time. Also, the TGI in test [8] and in test [9] was greater than 100 µM in each case.
Regarding `COc1cc(C2CC(c3cccc(Nc4ccnc5cc(Cl)ccc45)c3)=NN2c2ccccc2)cc(OC)c1OC` (stereo not drawn), the GI50 in [2] is 8.87 µM; in test [3], 2 µM; in test [4], 2.6 µM; in test [5] it was greater than 100 µM; in test [6], 7.98 µM; in test [10], 1.71 µM. The values for the GI50 in test [7], in test [8] and in [9] were 3.55 µM, 2.44 µM and 1.44 µM, respectively. Moreover, the TGI in [2], in [3], in test [4], in test [5], in test [6] and in test [10] was greater than 100 µM in each case. For the same compound, the TGI in [7], in test [8] and in test [9] was greater than 100 µM in each case.
Take `CCN(CC)CC(O)c1cc(-c2ccc(Cl)cc2)nc2c(C)c(Cl)ccc12` (stereo not drawn): the GI50 in [3] is 1.72 µM; in [4], 1.91 µM; in test [5] it was 1.93 µM; in [10], 1.6 µM; in test [7] it was 1.86 µM; in [9], 1.59 µM. For the same compound, the TGI in test [3] was 3.14 µM; in test [4] it was 3.48 µM; in test [5], 3.98 µM; in [10], 2.97 µM; in [7], 3.5 µM; in [9] it was 3.12 µM.
Take `CN1C2(c3ccccc3)C(C(=O)c3ccccc3)=C(C(=O)c3ccccc3)C1(c1ccccc1)c1c(-c3ccccc3)sc(-c3ccccc3)c12`: the TGI in test [1], in test [2], in [3], in [4], in [5] and in [7] was greater than 100 µM each time. For the same compound, in test [8], the TGI is greater than 100 µM.
Take `O=C(Cc1nc2ccccc2o1)C(=O)Nc1ccc(Cl)cc1Cl`: the TGI in test [1], in test [2], in test [4], in test [5], in test [7] and in [8] was greater than 100 µM throughout.
On to `O=C(CC(=O)c1cccc([N+](=O)[O-])c1)C(=O)Nc1ccccc1`, for which the TGI in test [1], in test [2], in test [3], in [4], in [5] and in test [6] was greater than 100 µM throughout. Also, the TGI in [7] and in [8] was greater than 100 µM in each case.
Consider `CN(C)c1ccc(/C=c2/c3cc(O)ccc3n3c2cc(-c2ccccc2)[n+]3C)cc1`, for which the GI50 in [1] is greater than 100 µM; in [8], 1.77 µM. Besides, the TGI was greater than 100 µM in [1]; greater than 100 µM in [2]; 2.29 µM in test [3]; 2.89 µM in [4]; 2.25 µM in test [10]; greater than 100 µM in test [7].
Take `[CH3][Hg]/[N]=C(/N)NC#N`: the GI50 in test [1] was 17.7 µM; in [2] it was 17.3 µM; in [3], 16.5 µM; in test [4] it was 10.6 µM; in test [5], 2.34 µM; in test [6] it was 3.73 µM. In addition, the GI50 in test [7] was 18.5 µM; in test [8] it was 2.23 µM. Moreover, the TGI in test [1] was 31.7 µM; in test [2], 38.4 µM; in test [3], 30 µM; in [4], 22.9 µM; in test [5], 4.94 µM; in test [6], greater than 100 µM. The values for the TGI in [7] and in test [8] were 54.5 µM and 5.28 µM, respectively.
With `Cc1cc(C)nc(NS(=O)(=O)c2ccc(NC(=O)COC(=O)c3cccc4c(=O)c5ccccc5[nH]c34)cc2)n1`, the TGI in test [1] was greater than 100 µM; in test [2] it was greater than 100 µM; in test [3], 38.8 µM; in [4], greater than 100 µM; in test [5], 73 µM; in test [6], 84.8 µM. The values for the TGI in test [7] and in test [8] were 95.5 µM and 83.9 µM, respectively.
For `Cc1cc(C)c(/C=N/NS(=O)(=O)c2ccccc2)c(C)c1`, the TGI in test [1], in test [2], in [3], in test [4], in [5] and in [6] was greater than 100 µM in each case. The TGI in test [7] and in [8] was greater than 100 µM each time.
Take `COc1ccc([C@@H]2OC(=O)C3C2C(=O)O[C@H]3c2ccc(OC)cc2)cc1` (stereo partly drawn): the TGI in [1], in test [2], in test [3], in test [6], in test [7] and in test [8] was greater than 100 µM in each case.
`CC1C(O)=C(O)c2ccccc2N1O` (stereo not drawn): the TGI in test [1], in [2], in [3], in test [4], in test [5] and in [6] was greater than 100 µM each time. Further, the TGI in test [7] and in [8] was greater than 100 µM each time.
Turning to `O=C(O)CCC1c2[nH]c3ccccc3c2CCN1Cc1ccccc1` (stereo not drawn), the TGI in test [1], in test [2], in test [3], in test [4], in test [5] and in test [6] was greater than 100 µM each time. The TGI in test [7] and in test [8] was greater than 100 µM in each case.
With `COC(=O)c1c2c(c(C)[n+]([O-])c1C)C(=O)C(NCc1ccc(O)cc1)=CC2=O`, the GI50 was 1.31 µM in test [1]; 1.93 µM in [2]; 1.7 µM in test [3]; 1.55 µM in test [4]; 0.256 µM in test [5]; 2 µM in test [10]. For the same compound, the values for the GI50 in test [7] and in test [8] were 1.67 µM and 0.934 µM, respectively. Also, the TGI in test [1] came out at 2.92 µM; in [2], 4.6 µM; in test [3], 4.1 µM; in test [4], 3.12 µM; in test [5], 0.93 µM; in test [10], 6.55 µM. For the same compound, the TGI in [7] amounted to 3.17 µM; in test [8], 2.72 µM.
